Experimental data published in patent US6368788B1 (priority 1987, dated 2002).
Read-outs that look alike come from different tables or passages of the source.

Tests used:
[1] = Bronchial asthma (Protocol A); assay type: in vivo, human
Method: Sixty five patients (65) with bronchial asthma, including both adults and children, were entered into the trial: 37 patients were treated with L-Glu-L-Trp and 28 (controls) received conventional therapy alone. L-Glu-L-Trp was administered im in a single daily dose of 1 μg/kg on each of 5-10 consecutive days. […] In certain patients it was possible to eliminate the use of prescribed steroids.

[2] = Complications of pregnancy (Protocol C); set-up: species or system human; details: in vivo
Method: L-Glu-L-Trp was administered to 34 pregnant women and 27 pregnant women receiving conventional treatment served as a control group. […] Signs of clinical improvement were resolution of weakness and dizziness, increased appetite, and the normalization of the immunological and hematological indices.

Pneumocystis carinii = Pneumocystis carinii lung infection in cortisone-immunocompromised rats; assay type: in vivo; details: for Lung (bacteria): mean ± S.E., magnification 400X; for Lymphocytes / Neutrophils / Total Leukocytes / Lymphocytes (% Normal) / Neutrophils (% normal) / Total Leukocytes (% normal): peripheral blood at 79 days; for Lymphocytes (% Normal) / Neutrophils (% normal) / Total Leukocytes (% normal): % of day 0
Method: Corticosteroids were administered to rats to induce an immunocompromised state in which an opportunistic infection with Pneumocystis carinii could be established. The immunocompromised state was induced by administering cortisone acetate im twice weekly at a dose of 25 mg/kg over the entire 12 week course of the study. Pneumocystis carinii lung infection was initiated by intranasal instillation on day 0. Prophylactic tetracycline was administered po in the drinking water ([…]), and peripheral blood differential counts were monitored over the next 12 weeks. In control (untreated) Pneumocystis-infected animals, differential counts, body weight, and lymphocyte counts began dropping at about 30-39 days and lung infection was evident histologically by about day 60-69. At day 80, tetracycline treatment was discontinued in all groups. By day 80 in this animal model, mean body weight of the animals had dropped by approximately 30% from the values recorded on day 0. Groups were comprised of 15 rats each.
L-Glu-L-Trp treatments were administered according to the following protocol: 10 consecutive daily im injections of 10 μg/kg or 100 μg/kg of L-Glu-L-Trp on days 0 through 9, 30 through 39, and 60 through 69 of the study. Differential cell counts in peripheral blood (TABLE 80) and lung histology (i.e., with enumeration of the number of P. carinii/10 microscopic fields—at 400× magnification) were used to monitor the course of the opportunistic infection.

[3] = Occupational radiation exposure to 100-200 R; set-up: species or system human; details: in vivo
From the text: A total of 263 patients and 18 control patients sustained exposure to 100-200 Roentgens of occupational radiation over a period of several weeks.

[4] = with antibiotic therapy
[5] = test system: Mycobacterium tuberculosis; set-up: species or system human; details: in vivo
HIV = test: HIV-infected individuals: comparative studies with TPI; set-up: species or system human; details: in vivo
Method: In separate studies, a total of 21 HIV-infected individuals were studied, including full-blown syndrome, prodromal, and pre-AIDS afflicted individuals who were treated with Thympentin. Thympentin and TPI are thymic gland peptide extracts previously disclosed in the scientific literature.

[6] = Survival in LPS-induced endotoxic shock; assay type: in vivo, CBA mice; details: 100 μg/kg prophylactic
Method: The mortality results were evaluated using the Litchfield-Wilcoxon's probit analysis method and a computer program written to conduct probit analyses.

[7] = not given; remark: listed apart in the source
[8] = After Combination L-Glu-L-Trp Therapy
[9] = After L-Glu-L-Trp Combination Therapy
[10] = psoriasis Group 1, after L-Glu-L-Trp Therapy (n = 30)
[11] = psoriasis, after Combination L-Glu-L-Trp Therapy (n = 30)
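Throughout, for ATIII: hospitalized children with severe pneumonia, thrombohemorrhagic syndrome plus secondary immune deficiency, lab values taken before and after treatment versus healthy normal controls, comparison group given antibiotic therapy alone.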
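Throughout, for Hagemann factor dependent fibrinolysis: hospitalized children with severe pneumonia, thrombohemorrhagic syndrome plus secondary immune deficiency, lab values taken before and after treatment versus healthy normal controls, comparison group given antibiotic therapy alone.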
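Throughout, for Patients with improvement: psoriasis patients, 30 per group, with disease activity tracked through laboratory and clinical measures, set against a group receiving traditional therapy alone.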
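Throughout, for Patients with significant improvement: psoriasis patients, 30 per group, with disease activity tracked through laboratory and clinical measures, set against a group receiving traditional therapy alone.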
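Throughout, for Patients with total recovery: psoriasis patients, 30 per group, with disease activity tracked through laboratory and clinical measures, set against a group receiving traditional therapy alone.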
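Throughout, for Prothrombin time: hospitalized children with severe pneumonia, thrombohemorrhagic syndrome plus secondary immune deficiency, lab values taken before and after treatment versus healthy normal controls, comparison group given antibiotic therapy alone.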
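Throughout, for Shorter length of hospital stay vs Group 2: psoriasis patients, 30 per group, with disease activity tracked through laboratory and clinical measures, set against a group receiving traditional therapy alone.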
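Throughout, for Whole blood clotting time: hospitalized children with severe pneumonia, thrombohemorrhagic syndrome plus secondary immune deficiency, lab values taken before and after treatment versus healthy normal controls, comparison group given antibiotic therapy alone.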

L-Glu-L-Trp
Patients with disappearance of symptoms of food and drug allergies ([1]; in vivo): more than half
Decrease in the incidence of bronchial asthmatic attacks ([1]; year long follow-up): 4.2 fold
Clinical outcome [2]: Decreased fetal hypoxia
Numbers of lung bacteria, % of saline treated control (Pneumocystis carinii; 10 μg/kg): about 33%
Lung (bacteria) (Pneumocystis carinii; 10 μg/kg im): 53 ± 32 P. carinii bacteria per 10 sections
Numbers of lung bacteria, % of saline treated control (Pneumocystis carinii; 100 μg/kg): ~43%
Lung (bacteria) (Pneumocystis carinii; 100 μg/kg im): 70 ± 33 P. carinii bacteria per 10 sections
Leukocyte counts, % of normal (Pneumocystis carinii; day 79): 45-47%
Lymphocyte counts, % of normal (Pneumocystis carinii; day 79): 45%
Lymphocytes (Pneumocystis carinii; 10 μg/kg im): 4.7 ± 1.2 ×10^6/ml
Neutrophils (Pneumocystis carinii; 10 μg/kg im): 2.0 ± 0.7 ×10^6/ml
Total Leukocytes (Pneumocystis carinii; 10 μg/kg im): 8.1 ± 2.3 ×10^6/ml
Lymphocytes (% Normal) (Pneumocystis carinii; 10 μg/kg im): 45%
Neutrophils (% normal) (Pneumocystis carinii; 10 μg/kg im): 41%
Total Leukocytes (% normal) (Pneumocystis carinii; 10 μg/kg im): 47%
Lymphocytes (Pneumocystis carinii; 100 μg/kg im): 4.7 ± 1.4 ×10^6/ml
Neutrophils (Pneumocystis carinii; 100 μg/kg im): 1.5 ± 0.5 ×10^6/ml
Total Leukocytes (Pneumocystis carinii; 100 μg/kg im): 7.8 ± 1.8 ×10^6/ml
Lymphocytes (% Normal) (Pneumocystis carinii; 100 μg/kg im): 45%
Neutrophils (% normal) (Pneumocystis carinii; 100 μg/kg im): 31%
Total Leukocytes (% normal) (Pneumocystis carinii; 100 μg/kg im): 45%
Outcome [3]: restoration of normal, or near normal, peripheral blood immune indices in all patients
Clinical outcome [4]: accelerated healing of chronic and acute ear infections
Clinical outcome at 2 months [5]: disappearance of toxic symptoms, a resorption of pulmonary infiltrates, and a resolution of pulmonary cavities
Considerable Improvement, % of patients [5]: 24%
Considerable Improvement, No. of patients [5]: 9
Improvement, % of patients [5]: 73%
Improvement, No. of patients [5]: 27
No Change, % of patients [5]: 3%
No Change, No. of patients [5]: 1
Patients with closure of degeneration foci and cavities in the lungs [5]: 35 of the 37
Patients with “improvement” [5]: 27
Response rate [5]: 97%
Comparative effectiveness (HIV): more effective than TPI in restoring normal immunologic indices, T-cell functional activity, and T4/T8 ratios
B-Lymphocytes [8]: 0.84 ± 0.06 ×10^9/L
B-Lymphocytes % Normal Value [8]: (175%)
IgA [8]: 67 ± 4.8
IgA % Normal Value [8]: (163%)
IgG [8]: 138 ± 5.6
IgG % Normal Value [8]: (97%)
IgM [8]: 153 ± 6.9
IgM % Normal Value [8]: (89%)
Leukocytes [8]: 11.0 ± 0.01 ×10^9/L
Leukocytes % Normal Value [8]: (98%)
Lymphocytes [8]: 0.36 ± 0.01 ×10^9/L
Lymphocytes % Normal Value [8]: (116%)
T-Lymphocytes [8]: 1.1 ± 0.01 ×10^9/L
T-Lymphocytes % Normal Value [8]: (167%)
ATIII [9]: 85 ± 2.1 % of normal
Clotting time (citrated whole blood-recalcified) [9]: 129 ± 2.3^
FDP [9]: 96 ± 6.7 µg/mL
Fibrinogen Concentration [9]: 4.2 ± 0.4 g/L
Fibrinolytic Activity [9]: 186 ± 11.5 min
Hagemann factor dependent fibrinolysis [9]: 72 ± 6.8
Kaolin-Cephalin clotting time [9]: 58 ± 1.2
Prothrombin time [9]: 22 ± 0.1
Thrombotest [9]: 33 ± 1.2
Whole blood clotting time [9]: 465 ± 16.2 s
Survivors at 24 hr. and 30 hr. [6]: statistically significant difference in the number of survivors
Patients with improvement ([7]; 10 days): 7%
Patients with significant improvement ([7]; 10 days): 60%
Patients with total recovery ([7]; 10 days): 33%
Shorter length of hospital stay vs Group 2 ([7]; average): 4.2 days
Decrease in erythema of skin eruptions sooner than controls ([7]; in vivo): 2.8 days
Disappearance of psoriatic rash sooner than controls ([7]; in vivo): 7.1 days
Earlier recovery of disease activity than conventional therapy ([7]; in vivo): 2 to 3 days
C3 complement [7, 10]: 926 ± 28.4 µg/mL
Ceruloplasmin [7, 10]: 366 ± 11.4 µg/mL
Clotting time (citrated whole blood-recalcified) [7, 10]: 141 ± 2.4
FDP [7, 10]: 23 ± 1.8 µg/mL
Fibrinogen Concentration [7, 10]: 3.4 ± 0.1 g/L
Fibrinolytic Activity [7, 10]: 200 ± 2.7 min
Kaolin-Cephalin clotting time [7, 10]: 58 ± 0.3
Orosomucoid [7, 10]: 829 ± 13.2 µg/mL
PT [7, 10]: 23 ± 0.2
Prealbumin [7, 10]: 357 ± 3.8 µg/mL
Thrombotest [7, 10]: 33 ± 0.5 units
Transferrin [7, 10]: 3.36 ± 0.08 µg/mL
α2-macroglobulin [7, 10]: 2.5 ± 0.01
Number of Patients Having a Clinical Outcome as: Considerable Improvement ([7]; psoriasis Group 1, day 8-10): 18/30
Number of Patients Having a Clinical Outcome as: Improvement ([7]; psoriasis Group 1, day 8-10): 2/30
Number of Patients Having a Clinical Outcome as: No Improvement ([7]; psoriasis Group 1, day 8-10): 3/30
Number of Patients Having a Clinical Outcome as: Recovery ([7]; psoriasis Group 1, day 8-10): 7/30
Patients with Considerable Improvement (%) ([7]; psoriasis Group 1, day 8-10): (60%)
Patients with Improvement (%) ([7]; psoriasis Group 1, day 8-10): (7%)
Patients with No Improvement (%) ([7]; psoriasis Group 1, day 8-10): (10%)
Patients with Recovery (%) ([7]; psoriasis Group 1, day 8-10): (23%)
B-Lymphocytes [7, 11]: 0.53 ± 0.02 ×10^9/L
B-Lymphocytes % Normal Value [7, 11]: (115%)
IgA [7, 11]: 138 ± 6.8
IgA % Normal Value [7, 11]: (140%)
IgG [7, 11]: 187 ± 1.9 mg/mL
IgG % Normal Value [7, 11]: (140%)
IgM [7, 11]: 193 ± 9.6
IgM % Normal Value [7, 11]: (152%)
Leukocytes [7, 11]: 9.0 ± 1.4 ×10^9/L
Leukocytes % Normal Value [7, 11]: (155%)
Lymphocytes [7, 11]: 2.5 ± 0.09 ×10^9/L
Lymphocytes % Normal Value [7, 11]: (144%)
T-Lymphocytes [7, 11]: 0.94 ± 0.07 ×10^9/L
T-Lymphocytes % Normal Value [7, 11]: (106%)
